Results from US11697648B2, “Fused pyrimidine pyridinone compounds as JAK inhibitors” (THERAVANCE BIOPHARMA R&D IP, LLC, priority 2019, dated 2023).

How the values were obtained:
JAK3 = JAK3 (Homo sapiens (Human), UniProt P52333); experiment: Biochemical JAK3 kinase assay (LanthaScreen)
Method in brief: (§1)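 GST-JAK + GFP-STAT1 peptide, HEPES pH 7.5/MgCl2/EGTA/Brij-35 buffer; cpd preincubation 1 h RT; ATP start, 1 h RT; stop with 10 mM EDTA + 2 nM Tb-anti-pSTAT1; TR-FRET 520/495. 4-parameter IC50 → pKi (Cheng-Prusoff).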

[1] = test system: IL-2 stimulated STAT5 phosphorylation in Tall-1 human T cell line (JAK3); experiment: Cellular JAK3 potency assay: inhibition of IL-2 stimulated pSTAT5 in Tall-1 T cells; assay type: cell-based
Method in brief: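 AlphaLISA SureFire Ultra measures STAT5 Tyr694/699 phosphorylation in lysed Tall-1 human T cells. Cells were exposed to compound for 1 h at 37 °C before a 30 min IL-2 challenge (300 ng/ml final). Values are pIC50 means with standard deviation from signal-versus-concentration curves.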

JAK2 = JAK2 (Homo sapiens (Human), UniProt O60674); experiment: Biochemical JAK2 kinase assay (LanthaScreen)
Method: (§2) Assay 1: Biochemical JAK and Tyk2 Kinase Assays
(§3) A panel of four LanthaScreen JAK biochemical assays (JAK1, 2, 3 and Tyk2) were carried in a common kinase reaction buffer (50 mM HEPES, pH 7.5, 0.01% Brij-35, 10 mM MgCl2, and 1 mM EGTA). Recombinant GST-tagged JAK enzymes and a GFP-tagged STAT1 peptide substrate were obtained from Life Technologies.
(§4) Serially or discretely diluted compounds were pre-incubated with each of the four JAK enzymes and the substrate in white 384-well microplates (Corning) at ambient temperature for 1 h. ATP was subsequently added to initiate the kinase reactions in 10 μL total volume, with 1% DMSO. […] Kinase reactions were allowed to proceed for 1 hour at ambient temperature before a 10 μL preparation of EDTA (10 mM final concentration) and Tb-anti-pSTAT1 (pTyr701) antibody (Life Technologies, 2 nM final concentration) in TR-FRET dilution buffer (Life Technologies) was added. The plates were allowed to incubate at ambient temperature for 1 h before being read on the EnVision reader (Perkin Elmer). Emission ratio signals (520 nm/495 nm) were recorded and utilized to calculate the percent inhibition values based on DMSO and background controls.
(§5) For dose-response analysis, percent inhibition data were plotted vs. compound concentrations, and IC50 values were determined from a 4-parameter robust fit model with the Prism software (GraphPad Software). Results were expressed as pIC50 (negative logarithm of IC50) and subsequently converted to pKi (negative logarithm of dissociation constant, Ki) using the Cheng-Prusoff equation.

Tyk2 = Tyk2 (Homo sapiens (Human), UniProt P29597); experiment: Biochemical Tyk2 kinase assay (LanthaScreen)
Method: as §2, §3, §4, §5

JAK1 = JAK1 (Homo sapiens (Human), UniProt P23458); experiment: Biochemical JAK1 kinase assay (LanthaScreen)
Method in brief: as §1

[2] = selectivity JAK3 over JAK1, difference of pKi
[3] = IL-2 stimulated pSTAT5, Tall-1 T cells
[4] = selectivity, difference of pKi values
[5] = IL-2 stimulated pSTAT5 in Tall-1 T cells

Sequence of JAK3 (P52333 whole entry): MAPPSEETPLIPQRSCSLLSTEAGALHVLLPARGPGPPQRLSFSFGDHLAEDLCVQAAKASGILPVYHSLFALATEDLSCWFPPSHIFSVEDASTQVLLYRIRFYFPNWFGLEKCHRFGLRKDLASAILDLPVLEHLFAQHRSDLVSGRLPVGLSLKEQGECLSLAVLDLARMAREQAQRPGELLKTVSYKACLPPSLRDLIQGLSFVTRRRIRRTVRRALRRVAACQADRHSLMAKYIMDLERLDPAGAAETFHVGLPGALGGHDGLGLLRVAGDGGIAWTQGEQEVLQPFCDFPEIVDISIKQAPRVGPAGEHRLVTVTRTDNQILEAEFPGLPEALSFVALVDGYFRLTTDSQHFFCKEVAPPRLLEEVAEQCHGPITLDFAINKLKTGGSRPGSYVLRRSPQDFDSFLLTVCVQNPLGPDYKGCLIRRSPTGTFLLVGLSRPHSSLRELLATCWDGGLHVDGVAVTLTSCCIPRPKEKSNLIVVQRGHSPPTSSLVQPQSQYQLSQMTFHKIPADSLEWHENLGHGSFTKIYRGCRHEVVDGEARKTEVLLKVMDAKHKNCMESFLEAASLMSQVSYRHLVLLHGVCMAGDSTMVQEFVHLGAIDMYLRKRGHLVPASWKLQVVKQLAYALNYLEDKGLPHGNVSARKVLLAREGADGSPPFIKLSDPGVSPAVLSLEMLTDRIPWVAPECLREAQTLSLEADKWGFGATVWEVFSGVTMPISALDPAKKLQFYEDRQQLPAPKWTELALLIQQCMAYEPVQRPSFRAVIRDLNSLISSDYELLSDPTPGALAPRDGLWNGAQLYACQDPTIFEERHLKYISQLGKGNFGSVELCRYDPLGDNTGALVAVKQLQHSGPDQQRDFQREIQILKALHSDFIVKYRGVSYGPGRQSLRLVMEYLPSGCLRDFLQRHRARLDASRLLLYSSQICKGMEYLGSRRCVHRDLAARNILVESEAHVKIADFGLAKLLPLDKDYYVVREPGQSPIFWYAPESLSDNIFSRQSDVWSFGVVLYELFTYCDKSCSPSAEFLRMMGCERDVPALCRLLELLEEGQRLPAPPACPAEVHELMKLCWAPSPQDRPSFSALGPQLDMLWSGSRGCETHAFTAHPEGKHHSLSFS
Sequence of Tyk2 (P29597 whole entry): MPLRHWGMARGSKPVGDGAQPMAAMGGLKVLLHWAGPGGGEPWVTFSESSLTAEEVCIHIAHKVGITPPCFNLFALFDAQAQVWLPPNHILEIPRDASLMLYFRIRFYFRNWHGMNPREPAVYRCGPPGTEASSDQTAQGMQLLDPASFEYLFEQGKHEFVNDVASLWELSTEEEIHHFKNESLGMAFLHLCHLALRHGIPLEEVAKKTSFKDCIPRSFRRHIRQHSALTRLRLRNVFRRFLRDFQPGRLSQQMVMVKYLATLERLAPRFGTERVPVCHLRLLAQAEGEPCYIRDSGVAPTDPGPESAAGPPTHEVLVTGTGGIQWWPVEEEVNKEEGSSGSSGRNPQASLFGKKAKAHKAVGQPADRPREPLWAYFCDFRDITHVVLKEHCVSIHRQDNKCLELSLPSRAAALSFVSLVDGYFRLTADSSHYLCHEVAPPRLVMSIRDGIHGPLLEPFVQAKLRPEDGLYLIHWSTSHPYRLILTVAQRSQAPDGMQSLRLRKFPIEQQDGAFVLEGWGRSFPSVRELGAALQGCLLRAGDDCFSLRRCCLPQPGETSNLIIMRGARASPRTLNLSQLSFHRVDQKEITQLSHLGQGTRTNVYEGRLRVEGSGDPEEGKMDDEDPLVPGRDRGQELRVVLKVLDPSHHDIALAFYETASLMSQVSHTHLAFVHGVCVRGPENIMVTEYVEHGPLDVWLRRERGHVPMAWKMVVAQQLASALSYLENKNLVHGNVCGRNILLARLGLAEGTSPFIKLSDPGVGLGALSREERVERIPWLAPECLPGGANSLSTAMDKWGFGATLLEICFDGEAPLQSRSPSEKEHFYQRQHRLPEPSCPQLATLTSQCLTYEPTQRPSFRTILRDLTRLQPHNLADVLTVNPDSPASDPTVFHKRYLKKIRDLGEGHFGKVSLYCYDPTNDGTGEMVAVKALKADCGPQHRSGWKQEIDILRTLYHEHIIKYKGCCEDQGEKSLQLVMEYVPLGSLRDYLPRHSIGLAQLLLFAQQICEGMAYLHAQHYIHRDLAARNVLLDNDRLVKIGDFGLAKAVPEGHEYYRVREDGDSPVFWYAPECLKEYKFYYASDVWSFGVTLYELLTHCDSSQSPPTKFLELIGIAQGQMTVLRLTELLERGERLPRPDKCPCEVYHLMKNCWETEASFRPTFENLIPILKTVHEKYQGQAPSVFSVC
Sequence of JAK1 (P23458 whole entry): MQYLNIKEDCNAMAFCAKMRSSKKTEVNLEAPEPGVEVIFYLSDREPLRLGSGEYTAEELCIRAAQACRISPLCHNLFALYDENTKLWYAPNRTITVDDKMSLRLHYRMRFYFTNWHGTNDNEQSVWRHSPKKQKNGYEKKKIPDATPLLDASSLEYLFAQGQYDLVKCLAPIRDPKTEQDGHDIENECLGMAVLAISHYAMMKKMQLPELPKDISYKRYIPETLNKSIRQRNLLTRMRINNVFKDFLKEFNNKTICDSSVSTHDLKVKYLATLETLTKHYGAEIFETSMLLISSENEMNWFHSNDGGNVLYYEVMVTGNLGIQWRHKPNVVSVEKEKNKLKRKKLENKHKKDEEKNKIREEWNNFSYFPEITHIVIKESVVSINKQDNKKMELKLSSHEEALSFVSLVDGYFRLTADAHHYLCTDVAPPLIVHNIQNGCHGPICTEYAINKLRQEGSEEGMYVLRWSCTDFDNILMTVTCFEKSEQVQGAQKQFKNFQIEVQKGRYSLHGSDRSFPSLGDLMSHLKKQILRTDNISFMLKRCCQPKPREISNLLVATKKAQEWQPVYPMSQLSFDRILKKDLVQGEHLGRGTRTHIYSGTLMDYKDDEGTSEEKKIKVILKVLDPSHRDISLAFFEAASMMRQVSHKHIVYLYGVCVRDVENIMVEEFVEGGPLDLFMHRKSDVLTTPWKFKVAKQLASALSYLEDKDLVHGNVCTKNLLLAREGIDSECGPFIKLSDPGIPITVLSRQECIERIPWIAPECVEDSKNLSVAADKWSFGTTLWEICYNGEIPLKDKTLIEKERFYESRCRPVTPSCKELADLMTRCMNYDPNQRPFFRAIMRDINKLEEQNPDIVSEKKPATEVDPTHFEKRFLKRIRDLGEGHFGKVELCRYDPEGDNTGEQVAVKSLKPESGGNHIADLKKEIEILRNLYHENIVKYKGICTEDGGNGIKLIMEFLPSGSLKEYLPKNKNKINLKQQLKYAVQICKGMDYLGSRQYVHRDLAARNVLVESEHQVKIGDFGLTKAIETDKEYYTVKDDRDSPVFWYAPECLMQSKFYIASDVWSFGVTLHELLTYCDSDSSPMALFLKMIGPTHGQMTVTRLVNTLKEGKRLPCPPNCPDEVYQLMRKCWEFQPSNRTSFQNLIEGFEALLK
Sequence of JAK2 (O60674 whole entry): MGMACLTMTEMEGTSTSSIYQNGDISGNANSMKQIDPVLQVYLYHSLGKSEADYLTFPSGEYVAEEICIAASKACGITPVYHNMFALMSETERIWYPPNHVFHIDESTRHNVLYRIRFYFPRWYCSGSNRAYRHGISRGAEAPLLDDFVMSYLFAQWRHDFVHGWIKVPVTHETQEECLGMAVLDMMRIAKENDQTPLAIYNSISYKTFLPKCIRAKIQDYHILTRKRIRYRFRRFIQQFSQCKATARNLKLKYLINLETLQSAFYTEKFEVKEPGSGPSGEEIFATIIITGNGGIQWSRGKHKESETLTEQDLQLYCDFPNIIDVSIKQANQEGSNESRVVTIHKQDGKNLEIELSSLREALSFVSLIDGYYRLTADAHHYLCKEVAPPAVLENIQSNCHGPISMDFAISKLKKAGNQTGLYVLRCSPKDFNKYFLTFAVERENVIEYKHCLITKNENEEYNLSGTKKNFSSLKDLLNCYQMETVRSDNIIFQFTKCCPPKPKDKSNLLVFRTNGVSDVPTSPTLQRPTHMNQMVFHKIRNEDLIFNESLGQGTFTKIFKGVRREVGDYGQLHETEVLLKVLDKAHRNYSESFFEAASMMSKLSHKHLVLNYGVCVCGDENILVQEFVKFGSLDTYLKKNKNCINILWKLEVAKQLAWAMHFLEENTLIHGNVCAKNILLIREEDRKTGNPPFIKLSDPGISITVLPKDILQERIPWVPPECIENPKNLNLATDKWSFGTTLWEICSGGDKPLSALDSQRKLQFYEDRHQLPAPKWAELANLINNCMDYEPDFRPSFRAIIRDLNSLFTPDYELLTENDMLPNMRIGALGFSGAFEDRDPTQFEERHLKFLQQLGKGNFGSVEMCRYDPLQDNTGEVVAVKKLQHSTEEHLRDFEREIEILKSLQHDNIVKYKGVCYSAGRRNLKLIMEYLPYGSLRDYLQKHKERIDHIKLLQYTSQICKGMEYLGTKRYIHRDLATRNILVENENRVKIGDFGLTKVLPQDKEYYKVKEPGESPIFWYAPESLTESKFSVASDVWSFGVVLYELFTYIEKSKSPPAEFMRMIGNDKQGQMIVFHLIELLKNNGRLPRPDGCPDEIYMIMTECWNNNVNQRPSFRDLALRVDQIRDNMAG

| SMILES | JAK 3 (pKi) (JAK3) | JAK3 (pKi)-JAK1 (pKi) (JAK3; [2]) | Tall-1 (pIC50) [1, 3] | JAK 2 (pKi) (JAK2) | Tyk 2 (pKi) (Tyk2) | JAK 1 (pKi) (JAK1) | JAK3 (pKi)-JAK1 (pKi) (JAK3; [4]) | Tall-1 (pIC50) [1, 5] |
| --- | --- | --- | --- | --- | --- | --- | --- | --- |
| C=CC(=O)N1CC(CCn2c(=O)ccc3cnc(Nc4ccc(N5CCN(C)C[C@@H]5C)cc4)nc32)C1 [Example 163] | B (B represents pKi value between 9 and 10 (Ki between 1 nM and 0.1 nM)) | A (A represents a value of 3 or above) | A (A represents a pIC50 value≥7.5 (IC50≤32 nM)) | E (E represents a pKi value of 7 or below (Ki of 100 nM or above)) | E (E represents a pKi value of 7 or below (Ki of 100 nM or above)) | E (E represents a pKi value of 7 or below (Ki of 100 nM or above)) |  |  |
| C=CC(=O)N1CC(CCn2c(=O)ccc3cnc(Nc4cccc(CN5CCN(S(=O)(=O)C6COC6)CC5)c4)nc32)C1 [Example 126] | A (A represents a pKi value≥10 (Ki≤0.1 nM)) | A (A represents a value of 3 or above) | B (B represents a pC50 value between 6.7 (included) and 7.5 (IC50 between 200 nM and 32 nM)) | E (E represents a pKi value of 7 or below (Ki of 100 nM or above)) | E (E represents a pKi value of 7 or below (Ki of 100 nM or above)) | E (E represents a pKi value of 7 or below (Ki of 100 nM or above)) |  |  |
| C=CC(=O)N1CCN(CCn2c(=O)ccc3cnc(Nc4ccc(N5CCN(S(=O)(=O)CCOC)CC5)cc4)nc32)CC1 [Example 147] | B (B represents pKi value between 9 and 10 (Ki between 1 nM and 0.1 nM)) | A (A represents a value of 3 or above) | C (C represents a pIC50 value between 6 and 6.7 (IC50 between 1 μM and 200 nM)) | E (E represents a pKi value of 7 or below (Ki of 100 nM or above)) | E (E represents a pKi value of 7 or below (Ki of 100 nM or above)) | E (E represents a pKi value of 7 or below (Ki of 100 nM or above)) |  |  |
| C=CC(=O)N1CCN(CCn2c(=O)ccc3cnc(Nc4cnn(C)c4)nc32)C(C)(C)C1 [Example 33] | A (A represents a pKi value≥10 (Ki≤0.1 nM)) | A (A represents a value of 3 or above) | B (B represents a pC50 value between 6.7 (included) and 7.5 (IC50 between 200 nM and 32 nM)) | E (E represents a pKi value of 7 or below (Ki of 100 nM or above)) | E (E represents a pKi value of 7 or below (Ki of 100 nM or above)) | E (E represents a pKi value of 7 or below (Ki of 100 nM or above)) |  |  |
| C=CC(=O)N1CC(CCn2c(=O)ccc3cnc(Nc4ccc(N5CCN(C)[C@@H](C)C5)cc4)nc32)C1 [Example 165] | A (A represents a pKi value≥10 (Ki≤0.1 nM)) | A (A represents a value of 3 or above) | A (A represents a pIC50 value≥7.5 (IC50≤32 nM)) | E (E represents a pKi value of 7 or below (Ki of 100 nM or above)) | E (E represents a pKi value of 7 or below (Ki of 100 nM or above)) | E (E represents a pKi value of 7 or below (Ki of 100 nM or above)) |  |  |
| C=CC(=O)N1CC(CCn2c(=O)ccc3cnc(Nc4ccc(N5C[C@@H](C)N(C)[C@@H](C)C5)cc4)nc32)C1 [Example 247] | B (B represents pKi value between 9 and 10 (Ki between 1 nM and 0.1 nM)) |  |  | E (E represents a pKi value of 7 or below (Ki of 100 nM or above)) | E (E represents a pKi value of 7 or below (Ki of 100 nM or above)) | E (E represents a pKi value of 7 or below (Ki of 100 nM or above)) | A (A represents a value of 3 or above) | A (A represents a pIC50 value≥7.5 (IC50≤32 nM)) |
| C=CC(=O)N1CC(CCn2c(=O)ccc3cnc(Nc4ccc(N5CCN(C(C)=O)[C@H](C)C5)cc4)nc32)C1 [Example 169] | A (A represents a pKi value≥10 (Ki≤0.1 nM)) | A (A represents a value of 3 or above) | A (A represents a pIC50 value≥7.5 (IC50≤32 nM)) | E (E represents a pKi value of 7 or below (Ki of 100 nM or above)) | E (E represents a pKi value of 7 or below (Ki of 100 nM or above)) | E (E represents a pKi value of 7 or below (Ki of 100 nM or above)) |  |  |
| C=CC(=O)N1CC(CCn2c(=O)ccc3cnc(Nc4ccc(N(C)Cc5ccccc5)cc4)nc32)C1 [Example 225] | B (B represents pKi value between 9 and 10 (Ki between 1 nM and 0.1 nM)) | A (A represents a value of 3 or above) | C (C represents a pIC50 value between 6 and 6.7 (IC50 between 1 μM and 200 nM)) | E (E represents a pKi value of 7 or below (Ki of 100 nM or above)) | E (E represents a pKi value of 7 or below (Ki of 100 nM or above)) | E (E represents a pKi value of 7 or below (Ki of 100 nM or above)) |  |  |
| C=CC(=O)N1CCN(C(C)(C)Cn2c(=O)ccc3cnc(Nc4ccc(N5CCN(C)CC5)cc4)nc32)CC1 [Example 164] | B (B represents pKi value between 9 and 10 (Ki between 1 nM and 0.1 nM)) | A (A represents a value of 3 or above) | C (C represents a pIC50 value between 6 and 6.7 (IC50 between 1 μM and 200 nM)) | E (E represents a pKi value of 7 or below (Ki of 100 nM or above)) | E (E represents a pKi value of 7 or below (Ki of 100 nM or above)) | E (E represents a pKi value of 7 or below (Ki of 100 nM or above)) |  |  |
| C=CC(=O)N1CCN(CCn2c(=O)ccc3cnc(Nc4cnn(-c5ccccc5)c4)nc32)[C@@H](CC)C1 [Example 195] | B (B represents pKi value between 9 and 10 (Ki between 1 nM and 0.1 nM)) | A (A represents a value of 3 or above) | B (B represents a pC50 value between 6.7 (included) and 7.5 (IC50 between 200 nM and 32 nM)) | E (E represents a pKi value of 7 or below (Ki of 100 nM or above)) | E (E represents a pKi value of 7 or below (Ki of 100 nM or above)) | E (E represents a pKi value of 7 or below (Ki of 100 nM or above)) |  |  |
| C=CC(=O)N1CCN(CCn2c(=O)ccc3cnc(Nc4ccc(N5CCN(C)[C@@H](C)C5)nc4)nc32)[C@@H](C)C1 [Example 252] | B (B represents pKi value between 9 and 10 (Ki between 1 nM and 0.1 nM)) |  |  | E (E represents a pKi value of 7 or below (Ki of 100 nM or above)) | E (E represents a pKi value of 7 or below (Ki of 100 nM or above)) | E (E represents a pKi value of 7 or below (Ki of 100 nM or above)) | A (A represents a value of 3 or above) | B (B represents a pC50 value between 6.7 (included) and 7.5 (IC50 between 200 nM and 32 nM)) |
| C=CC(=O)N1CC(CCn2c(=O)ccc3cnc(Nc4ccc5[nH]cnc5c4)nc32)C1 [Example 84] | B (B represents pKi value between 9 and 10 (Ki between 1 nM and 0.1 nM)) | A (A represents a value of 3 or above) | C (C represents a pIC50 value between 6 and 6.7 (IC50 between 1 μM and 200 nM)) | E (E represents a pKi value of 7 or below (Ki of 100 nM or above)) | E (E represents a pKi value of 7 or below (Ki of 100 nM or above)) | E (E represents a pKi value of 7 or below (Ki of 100 nM or above)) |  |  |
| C=CC(=O)N1CCN(CCn2c(=O)ccc3cnc(Nc4cnn(CCOCC)c4)nc32)[C@@H](CC)C1 [Example 221] | B (B represents pKi value between 9 and 10 (Ki between 1 nM and 0.1 nM)) | A (A represents a value of 3 or above) | B (B represents a pC50 value between 6.7 (included) and 7.5 (IC50 between 200 nM and 32 nM)) | E (E represents a pKi value of 7 or below (Ki of 100 nM or above)) | E (E represents a pKi value of 7 or below (Ki of 100 nM or above)) | E (E represents a pKi value of 7 or below (Ki of 100 nM or above)) |  |  |
